The text below walks through data of patent US8003599B2, “Inhibitors of L1 and ADAM10 for the treatment of carcinomas” (Deutsches Krebsforschungszentrum, priority 2004, dated 2011).

The assay deals with HEK293-hL1 cells. The assay is described as follows: Haptotactic cell migration assay in Transwell chambers, HEK293-hL1 cells. The conditions noted are these: fibronectin, 24 h after transient transfection (FIG. 11). It counts as cell-based, human. As for the experimental part:
(C) Inhibition of haptotactic cell migration in the absence or presence of the indicated mAbs to integrins at a final concentration of 10 μg/ml. FN at 10 μg/ml or BSA for control were coated onto the backside of Transwell chambers. Cells were seeded into the top chamber and allowed to transmigrate for 16 hr at 37° C. The antibody was present during the assay time. Each determination was done in quadruplicate and transmigrated cells were stained from the back of the filter. The dye was eluted from the filter and measured at 595 nm. The amount of dye is proportional to the number of transmigrated cells. Values for the migration on BSA were below 0.25 O.D. units for each cell type.
The haptotactic cell migration assay on fibronectin, laminin or BSA was performed in Transwell chambers (Costar, 6.5 mm diameter, 5 um pore size) and was described in detail elsewhere (Mechtersheimer et al., supra). Transmigrated cells were quantified by staining of the transwell membranes with cristalviolet solution as described (Mechtersheimer at al., supra). The eluted dye was measured at 595 nm in an ELISA reader.

Structures are written as SMILES. “Also recorded” adds a separate entry of the source.

Turning to `COc1cccc(-c2cc(=O)c3ccccc3o2)c1N` [PD59098], the “suppression of enhanced (L1-dependent) migration of HEK-293-hL1 wild type cells” value is listed as “same effect; also recorded: could block the L1-dependent migration”.
